In article PMC10303059, “Chloroquine and Hydroxychloroquine, as Proteasome Inhibitors, Upregulate the Expression and Activity of Organic Anion Transporter 3” (Pharmaceutics, 2023):

System: T1, 20S proteasome
T1 construct: gene PSMB5; endogenous proteasome of COS-7 cells expressing OAT3; with Proteasome subunit beta type-6; Proteasome subunit beta type-7; Proteasome subunit beta type-1; Proteasome subunit beta type-2; Proteasome subunit beta type-3; Proteasome subunit beta type-4; Proteasome subunit alpha type-1; Proteasome subunit alpha type-2; Proteasome subunit alpha type-3; Proteasome subunit alpha type-4; Proteasome subunit alpha type-5; Proteasome subunit alpha type-6; Proteasome subunit alpha type-7
Assay: […] proteasome assay kit (fluorescence) after treatment of intact cells
Assay type: cell-based
Settings: OAT3-expressing COS-7 cells treated 4 h; range over 10-100 µM; direct binding not shown

## CCN(CCO)CCCC(C)Nc1ccnc2cc(Cl)ccc12 (stereo not shown) [Hydroxychloroquine]
  % inhibition at 10-100 μM: 23–61%
